Experimental data published in patent US20160235710A1, “COMPOSITION FOR TREATING OR PREVENTING ERECTILE DYSFUNCTION COMPRISING LDD175 AS ACTIVE INGREDIENT” (ANYGEN, INC., priority 2015, published 2016).
Several values for one entry are separate records, joined by “and”; a condition that tells them apart may be missing. Identical values can stand only once. Like-named read-outs stand apart in the source and are kept apart here.

Columns and labels:
[1] = test system: rat model with diabetic erectile dysfunction; test: Diabetic erectile dysfunction rat model (streptozotocin), intracavernosal pressure; assay type: in vivo, Sprague-Dawley rats; conditions: for maximal ICP/ABP ratio: 5 V
Description: (§1) The erectile response was measured using Sprague-Dawley rats. The detailed methodology of measuring the erectile response has been described previously (Rehman et al., 1997). The 8-10 wk aged rats were anesthetized with intramuscular injection of Zoletil 100 mg/kg (Virbac, Carros, France), and placed on a thermally regulated surgical table. Systemic arterial blood pressure (ABP) was monitored via carotid artery cannulation (polyethylene-50 tubing). The prostate and bladder were exposed through a midline abdominal incision. The major pelvic ganglion, pelvic nerves, and cavernous nerve were identified as posterolateral to the prostate on each side. An electric stimulator with stainless steel bipolar hook electrodes was placed around the cavernous nerve for electrical stimulation. To monitor intracavernosal pressure (ICP), a 25-gauge cannula was filled with […], connected to polyethylene-50 tubing, and inserted into one side of the crura. Systemic arterial blood pressure (ABP) and intracavernosal pressure (ICP) were measured with a transducer connected to a PowerLab® (AD Instruments, Colorado Spring, Colo., USA), which is a computerized system for data acquisition. Real-time display and documentation of pressure were conducted with Chart™ 6 software. Sub-maximal electrical field stimulation (EFS) was used with 1 V, 2 Hz, 5 ms pulse width, and duration of 60 seconds. Sub-maximal electrical field stimulation was applied 10 min after a series of control (buffer solution alone), LDD175 (10 mg/kg), and udenafil (1 mg/kg) injections. At the end of sub-maximal stimulation, the full response was measured using the EFS of 6 V, 10 Hz, 5 ms pulse width, with duration of 60 seconds. Buffer solution, LDD175, and udenafil were administered at intervals of 30 min. The ratio of maximal ICP to mean arterial BP at the peak of the erectile response was calculated in order to control for variations in ABP.
The 8-wk aged male Sprague-Dawley rats were administered with an intraperitoneal injection of streptozotocin (65 mg/kg body weight) dissolved in 5 mM citric acid buffer (pH 4.5), thereby inducing insulin dependent diabetes mellitus (IDDM). Rats of the normal control were injected with only 5 mM citric acid buffer (pH 4.5) by the same method. On day 2 of breeding, the rats were fasted for 16 hours, and the blood was collected from the tail vein to conduct the blood glucose test. Only rats with a blood glucose level of 250 mg/de or higher were selected for a diabetes induced group.

BKCa channel = biological target: T1, BKCa channel (Homo sapiens, UniProt Q12791); test: Whole-cell patch-clamp recording of BKCa currents in cultured human CSM cells; assay type: cell-based; conditions: for activation of outward rectifying K+ currents (whole-cell), increase vs. control: at +60 mV
T1 construct: Homogeneous explant cell cultures of human corporal smooth muscle (CSM) cells were prepared; endogenous in cells; host or cells: primary explant cultures of human corporal smooth muscle (CSM) cells from erectile dysfunction patients
Description: Human corporal tissues were obtained from the corpus cavernosa of patients with organic erectile dysfunction undergoing implantation of penile prostheses. Homogeneous explant cell cultures of human corporal smooth muscle (CSM) cells were prepared as follows (Palmer et al., 1994; Sung et al., 2011). Radial sections of approximately 3×3×10 mm were excised from the mid-penile shafts of the respective resected sample. These samples were tissues including smooth muscles, endothelium, and connective tissues, with occasional nerve fibers. The tissues were washed, cut into 1-2 mm pieces, and placed in tissue culture dishes filled with Dulbecco's modified Eagle's medium (DMEM, Gibco, Carlsbad, Calif., USA) supplemented with 10% fetal bovine serum and antibiotics (100 units/mL penicillin, streptomycin; Gibco), under 5% O2 and 5% CO2. After the explants were attached to the substrate (usually 1-2 days), additional medium was added. The smooth muscle cells were observed migrating from the explants, and underwent division. The cells were subsequently detached via a trypsin/EDTA protocol to establish secondary cultures from the explants. These cultures were morphologically homogeneous. The cobblestone morphology, which is the characteristic of endothelial cells, and the flattened and spread-out shape, which is the characteristic of fibroblasts, were not observed. Cellular homogeneity was further verified by observing smooth muscle-specific α-actin and myosin immuno-responsiveness. While the cultures were maintained for four or more passages, all measured pharmacological and molecular properties were evaluated in the intact tissues that were maintained in the cultures, for example, cyclic adenosine monophosphate formation (Palmer et al., 1994), calcium mobilization (Zhao and Christ, 1995), expression or function of the gap junction protein, connexin (Brink et al., 1996), and K+ channel activity (Lee et al., 1999).
The Ca^2+-activated potassium channel (BKCa) was measured by using the conventional whole-cell patch-clamp technique (Sung et al., 2011). Patch electrodes were made from borosilicate glass capillary tubing (World Precision Instruments, Sarasota, Fla., USA), and had 2.5-5 MO resistance. The cell suspension was placed into a small chamber (0.6 ml) on the stage of an inverted microscope (TMD Diaphot, Nikon, Tokyo, Japan). The membrane currents in smooth muscle cells were recorded using a patch clamp amplifier (Axopatch-1 D, Axon Instruments, Foster City, Calif., USA). The liquid junction potential between the pipette solution and the bath solution was only about 3 mV, and thus uncorrected. In each experiment, whole-cell configuration was not achieved until the seal resistance became larger than 5 GO. The pCLAMP software (Axon Instruments) and Digidata-1322A (Axon Instruments) were used for data acquisition and application of command pulses. Membrane currents were measured during ramping, and filtered at 5 kHz (−3 dB frequency). The current signals were filtered at 5 kHz, digitized, and analyzed on a personal computer using pCLAMP and Origin software (Microcal Software, Northampton, Mass., USA). The standard bath solution was prepared to contain 135 mmol NaCl, 5 mmol KCl, 10 mmol HEPES, 1.8 mmol CaCl2, 1 mmol MgCl2, and 5 mmol glucose, per liter, at pH 7.4 adjusted with NaOH. The pipette (internal) solution was prepared to contain, per liter, 140 mmol KCl, 10 mmol HEPES, 5 mmol K2ATP, 2 mmol MgCl2, 5 mmol ethyleneglycol-bis-[2-aminoethyl ether]-N,N′-tetraacetic acid (EGTA), and 0.5 mmol GTP, at pH 7.2 adjusted with KOH. The Ca^2+-free concentration in the pipette solution was adjusted to 3.15 nM by adding an appropriate amount of CaCl2, determined using the Max Chelator Sliders software (C. Patton, Stanford University).

[2] = test system: rabbit corporal smooth muscle (CSM) strip; test: Organ bath relaxation of phenylephrine-pre-contracted rabbit corpus cavernosal strips; design: species or system New Zealand white rabbits; conditions: for relaxation, % of the phenylephrine (PE)-induced contraction: concentration-response; for % relaxation of the phenylephrine-induced contraction: synergy experiment
Description: Sexually mature male New Zealand white rabbits (3.0±0.3 kg) were killed with an air embolism in the ear vein. The entire penis was then surgically excised, and then cleaned by removing the […] and urethra. Then, the corporal tissue was carefully dissected from the surrounding tunica. Four corpus cavernosal strips with approximately equal sizes (2×2×10 mm) were obtained from each penis.
Rabbit corpus cavernosal strips were separately prepared for organ-bath studies. Each corporal strip was mounted in a 10 ml-organ chamber filled with Krebs buffer (composition in mmol/l: 118.4 NaCl, 4.7 KCl, 2.5 CaCl2, 1.2 KH2PO4, 1.2 MgSO4, 24.9 NaHCO3, and 11.1 D-glucose), with one end fixed to a tissue holder and the other secured to a force transducer. The force transducer was connected to an appropriately calibrated four-channel polygraph (Power-Lab; AD Instruments, Sydney, NSW, Australia), in which the transducer output was recorded. The corpus cavernosal strips were kept in the organ bath with Krebs solution maintained at 36.5° C. by a thermo-regulated water circuit and by continuously bubbling with a mixture of 95% O2 and 5% CO2. Each corporal strip was stretched to an optimal isometric tension of 1.0 g and was equilibrated for 60 min. During the equilibration, the tissues were washed with fresh Krebs solution every 15 min, and the tension was adjusted if necessary.
The vasodilatory effect of LDD175 was studied by cumulative addition of the sample at concentrations ranging from 10^−7 to 10^−4 M to endothelium-intact strips and endothelium-denuded strips after pre-contraction with 10^−5 M phenylephrine (PE). The endothelial lining of the corpus cavernosum was removed by rubbing the strip between the thumb and index finger for 20 seconds and soaking the same in 0.3% solution of 3[(3-cholamidopropyl)-dimethylammonio]-l-propanesulphonate (CHAPS) for 10 seconds. It was confirmed whether the endothelium was functionally completely removed for all strips by pre-contracting the strips with 10^−5 M […] PE and then adding acetylcholine (10^−6 M) thereto. […] After the addition of IbTX, LDD175 was added to strips pre-contracted with PE. The relaxation effect of the PDE5 inhibitor (udenafil, 10^−6 and 10^−5 M) was also separately measured in the same manner, and compared to that of LDD175. The synergistic relaxation effect between 10^−5 M LDD175 and 10^−6 M udenafil was also investigated.

[3] = test system: erectile function of rats; test: In vivo cavernous nerve stimulation model, erectile response; design: species or system Sprague-Dawley rats
Description: as §1

aortic rings of rats = conditions: cited from earlier work
BP and heart rate = conditions: cited from earlier work
[4] = sub-maximal EFS, intravenous LDD175 10 mg/kg, n=8

T1 sequence (Q12791 whole entry): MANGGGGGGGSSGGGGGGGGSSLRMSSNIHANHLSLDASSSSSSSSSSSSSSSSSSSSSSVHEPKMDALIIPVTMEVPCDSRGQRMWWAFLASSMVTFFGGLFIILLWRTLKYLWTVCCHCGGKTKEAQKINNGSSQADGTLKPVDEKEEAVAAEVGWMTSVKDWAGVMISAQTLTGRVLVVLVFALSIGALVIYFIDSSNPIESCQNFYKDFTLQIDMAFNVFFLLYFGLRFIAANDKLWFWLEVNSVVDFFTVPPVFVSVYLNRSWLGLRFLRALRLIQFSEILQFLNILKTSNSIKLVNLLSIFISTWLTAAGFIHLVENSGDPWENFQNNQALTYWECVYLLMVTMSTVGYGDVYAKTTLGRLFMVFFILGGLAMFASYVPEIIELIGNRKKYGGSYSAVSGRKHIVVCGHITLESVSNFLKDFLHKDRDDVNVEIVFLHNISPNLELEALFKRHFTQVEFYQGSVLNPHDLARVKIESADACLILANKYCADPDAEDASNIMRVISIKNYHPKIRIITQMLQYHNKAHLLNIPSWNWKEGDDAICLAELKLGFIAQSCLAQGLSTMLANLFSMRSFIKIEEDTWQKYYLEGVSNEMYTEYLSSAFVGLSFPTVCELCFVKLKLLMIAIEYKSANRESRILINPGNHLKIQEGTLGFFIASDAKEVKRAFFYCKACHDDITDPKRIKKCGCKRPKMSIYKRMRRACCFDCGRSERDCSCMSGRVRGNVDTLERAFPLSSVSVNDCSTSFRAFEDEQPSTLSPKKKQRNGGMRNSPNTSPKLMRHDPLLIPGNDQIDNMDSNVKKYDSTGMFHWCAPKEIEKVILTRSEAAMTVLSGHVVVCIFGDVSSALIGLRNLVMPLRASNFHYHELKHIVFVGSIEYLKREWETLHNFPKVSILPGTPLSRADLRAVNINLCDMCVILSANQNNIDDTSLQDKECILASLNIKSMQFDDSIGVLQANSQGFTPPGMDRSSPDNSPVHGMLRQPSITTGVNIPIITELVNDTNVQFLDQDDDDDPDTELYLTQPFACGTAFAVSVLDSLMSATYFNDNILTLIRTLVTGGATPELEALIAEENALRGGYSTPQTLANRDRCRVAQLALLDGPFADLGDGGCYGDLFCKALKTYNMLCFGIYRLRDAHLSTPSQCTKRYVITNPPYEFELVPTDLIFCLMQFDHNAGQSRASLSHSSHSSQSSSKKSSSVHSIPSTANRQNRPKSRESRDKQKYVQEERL

CCCc1nn(C)c2c(=O)[nH]c(-c3cc(S(=O)(=O)N4CCN(C)CC4)ccc3OCC)nc12 [sildenafil]
maximal ICP/ABP ratio ([1]; 1 mg/kg, n=6): 55.4±5.2
maximal ICP/ABP ratio ([1]; 5 mg/kg, n=7): 69.9±5.4

CC[N+](CC)(CC)CC [TEA, tetraethylammonium, reference compound]
suppression of LDD175-activated K+ currents (BKCa channel): 78.2%

CCCOc1ccc(S(=O)(=O)NCCC2CCCN2C)cc1-c1nc2c(CCC)nn(C)c2c(=O)[nH]1 (stereo not drawn) [udenafil, reference compound]
relaxation, % of the phenylephrine (PE)-induced contraction ([2]; 10^−5 M): 67.1±1.7%
% relaxation of the phenylephrine-induced contraction ([2]; 10^−6 M alone, n=7): 21.6±2.7%
relaxation, % of the phenylephrine (PE)-induced contraction ([2]; 10^−6 M): 34.5±3.9%
effect on maximal ICP, maximal ICP/ABP ratio and AUC of ICP/ABP ratio compared with 10 mg/kg LDD175 ([3]; 1 mg/kg udenafil, sub-maximal EFS): no difference

O=c1[nH]c2cc(C(F)(F)F)ccc2n1-c1cc(C(F)(F)F)ccc1O [NS1619, reference compound]
activation of outward rectifying K+ currents (whole-cell), increase vs. control (BKCa channel; 30 μM): 880.0%
peak current density (BKCa channel; 30 μM, −40 mV): 1.5±0.6 pA/pF
peak current density, fold vs. control (BKCa channel; 30 μM, −40 mV): 1.3 fold

O=C(O)c1ccc(Cl)c2c1[nH]c1c3ccc(C(F)(F)F)cc3oc12 [LDD175, 4-chloro-7-trifluoromethyl-10H-benzo[4,5]furo[3,2-b]indole-1-carboxylic acid]
relaxation of aortic rings (aortic rings of rats): not relaxed
relaxation response ([2]; 10^−4 M LDD175, denuded endothelium, n=10): 41.0±4.9%
relaxation response ([2]; 10^−4 M LDD175, intact endothelium, n=7): 45.9±6.2%
relaxation response after IbTX pretreatment ([2]; 10^−4 M LDD175, strips pre-treated with 100 nM IbTX for 30 minutes, n=7): 23.6±3.3%
relaxation, % of the phenylephrine (PE)-induced contraction ([2]; 10^−4 M): 54.0±3.0% and 54.0±3.1%
% relaxation of the phenylephrine-induced contraction ([2]; 10^−5 M alone, n=7): 32.7±3.8%
relaxation, % of the phenylephrine (PE)-induced contraction ([2]; 10^−5 M): 26.3±2.0%
relaxation, % of the phenylephrine (PE)-induced contraction ([2]; 10^−6 M): 14.5±2.6%
relaxation, % of the phenylephrine (PE)-induced contraction ([2]; 10^−7 M): 3.7±1.4%
intracavernosal pressure ([1]; LDD175 5 mg/kg and 10 mg/kg injection groups, 10 mg/kg more effective than 5 mg/kg): significantly increased
effect of LDD175 on intracavernosal pressure after BKCa channel inhibitor ([1]; TEA 30 mg/kg injected, after 10 minutes LDD175 10 mg/kg): completely inhibited
peak current density (BKCa channel; 0.1 μM, +60 mV, n=10): 30.9±6.5 pA/pF
peak current density (BKCa channel; 1 μM, +60 mV, n=10): 45.1±8.2 pA/pF
peak current density (BKCa channel; 10 μM, +60 mV, n=10): 178.5±30.0 pA/pF
peak current density (BKCa channel; 30 μM, +60 mV, n=10): 257.3±48.3 pA/pF
activation of outward rectifying K+ currents (whole-cell), increase vs. control (BKCa channel; 30 μM): 952.1%
peak current density (BKCa channel; 30 μM, −40 mV): 23.9±5.8 pA/pF
peak current density, fold vs. control (BKCa channel; 30 μM, −40 mV): 42.8 fold
peak current density (BKCa channel; 100 μM, +60 mV, n=10): 265.5±53.4 pA/pF
BP and heart rate changes following intravenous administration (BP and heart rate; 10 mg/kg LDD175, intravenous): did not cause significant changes
adverse cardiovascular effects in in vivo animal experiments (BP and heart rate; rat, in vivo): no significant adverse cardiovascular effects
BP fluctuation and hemodynamical instability ([3]; during in vivo cavernous nerve stimulation): not observed
area under curve (AUC) of ICP/ABP ratio [3, 4]: 1444.4±133.3
maximal ICP [3, 4]: 57.8±6.6 mmHg
maximal ICP/ABP ratio [3, 4]: 45.3±5.8%

iberiotoxin (QFTDVDCSVSKECWSVCKDLFGVDRGKCMGKKCRCYQ; UniProt P24663 1-37, looked up) [IbTX, reference compound]
suppression of LDD175-activated K+ currents (BKCa channel; 100 nM IbTX, n=4): 78.1%
